In patent US20070172957A1, “Methods of identifying anti-inflammatory macrolides” (TAISHO PHARMACEUTICAL CO., LTD., priority 2004, published 2007):

System: genes predictive for the anti-inflammatory macrolide effect
Assay: Genes statistically predictive of Clari response: differentially expressed with Clari but not the inactive macrolides MAA or Josa (Appendix E)
Type: cell-based
Excerpt: In the case of the above-mentioned (i) related to arachidonic acid biosynthesis, specifically, methods of the embodiment involve assaying whether a test macrolide alters biosynthesis of arachidonic acid, alters the expression or activities of enzymes involved in the biosynthesis or activation of arachidonic acid (e.g., arachidonic acid CoA synthetase, delta-6 desaturase, fatty acid elongase, and delta-5 desaturase, AA-related genes in Tables 2 and 3), or alters the expression of genes identified as predictive for the anti-inflammatory macrolide effect (Appendix E). Assays in which arachidonic acid or gene expression or enzymatic activity is detected can be carried out after contacting a cell with a test macrolide. Any cell line that secretes prostaglandin or produces arachidonic acid can be used. Epithelial and macrophages lines (e.g., A549 or THP-1) are suitable for this purpose; other cell lines can be identified by carrying out assays such as those described in the specific Examples, below. Alternatively, screening assays can be carried out after adding a test macrolide to an in vitro cell system (e.g., a cellular extract or liver microsome preparation) or an in vitro enzyme assay system.

Q: Which results are given for `CC[C@H]1OC(=O)[C@H](C)[C@@H](O[C@H]2C[C@@](C)(OC)[C@@H](O)[C@H](C)O2)[C@H](C)[C@@H](O[C@@H]2O[C@H](C)C[C@H](N(C)C)[C@H]2O)[C@](C)(OC)C[C@@H](C)C(=O)[C@H](C)[C@@H](O)[C@]1(C)O` [clarithromycin]?
A: group mean, gene DDOST (SpotID 49757, MAA and Josa vs. Clari): 1.08; group mean, gene BCL2L2 (SpotID 49761, MAA and Josa vs. Clari): 1.01; group mean, gene AD022 (SpotID 49767, MAA and Josa vs. Clari): 1.12; mean group, AD022 (SpotID 49767, pooled group mean): 1.10; group mean, gene P4HB (SpotID 49781, MAA and Josa vs. Clari): 1.10; group mean, gene CYC1 (SpotID 49787, MAA and Josa vs. Clari): 0.90; mean group, CYC1 (SpotID 49787, pooled group mean): 0.94; group mean, gene BCL2L2 (SpotID 49794, MAA and Josa vs. Clari): 1.01; mean group, AD022 (SpotID 49800, pooled group mean): 1.09; group mean, gene CDKN2C (SpotID 49815, MAA and Josa vs. Clari): 0.90; group mean, gene CYC1 (SpotID 49820, MAA and Josa vs. Clari): 0.90; group mean, gene LAMP2 (SpotID 49882, MAA and Josa vs. Clari): 1.17; group mean, gene ATP2B4 (SpotID 49915, MAA and Josa vs. Clari): 1.03; mean group, ATP2B4 (SpotID 49915, pooled group mean): 1.06; group mean, gene DHCR24 (SpotID 49922, MAA and Josa vs. Clari): 1.27; group mean, gene KIAA0169 (SpotID 49930, MAA and Josa vs. Clari): 0.95; mean group, RFC1 (SpotID 49947, pooled group mean): 0.93; group mean, gene CCNE2 (SpotID 49967, MAA and Josa vs. Clari): 0.82; group mean, gene BMP6 (SpotID 49981, MAA and Josa vs. Clari): 1.10; group mean, gene VTN (SpotID 49989, MAA and Josa vs. Clari): 0.90; group mean, gene SRC (SpotID 49990, MAA and Josa vs. Clari): 1.17; group mean, gene NFYC (SpotID 50011, MAA and Josa vs. Clari): 0.95; mean group, HIF1A (SpotID 50022, pooled group mean): 0.93; group mean, gene GNB2L1 (SpotID 50049, MAA and Josa vs. Clari): 1.10; mean group, NDUFA2 (SpotID 50050, pooled group mean): 1.02; group mean, gene MBTPS1 (SpotID 50067, MAA and Josa vs. Clari): 1.07; group mean, gene SCOP (SpotID 50079, MAA and Josa vs. Clari): 1.05; mean group, SCOP (SpotID 50079, pooled group mean): 1.04; group mean, gene IDI1 (SpotID 50084, MAA and Josa vs. Clari): 1.32; group mean, SpotID 50085 (gene symbol not given) (SpotID 50085, MAA and Josa vs. Clari): 1.00; group mean, gene CNOT3 (SpotID 50099, MAA and Josa vs. Clari): 0.84; mean group, CNOT3 (SpotID 50099, pooled group mean): 0.86; group mean, gene IRF5 (SpotID 50103, MAA and Josa vs. Clari): 1.01; group mean, gene RRBP1 (SpotID 50135, MAA and Josa vs. Clari): 1.11; group mean, SpotID 50216 (gene symbol not given) (SpotID 50216, MAA and Josa vs. Clari): 1.05; group mean, gene FLJ13868 (SpotID 50222, MAA and Josa vs. Clari): 1.06; group mean, gene HK2 (SpotID 50224, MAA and Josa vs. Clari): 1.14; mean group, IL10RB (SpotID 50267, pooled group mean): 1.08; group mean, gene UQCR (SpotID 50284, MAA and Josa vs. Clari): 1.00; group mean, gene TM7SF2 (SpotID 50294, MAA and Josa vs. Clari): 1.29; group mean, gene CDR2 (SpotID 50302, MAA and Josa vs. Clari): 1.08; group mean, gene MAX (SpotID 50307, MAA and Josa vs. Clari): 1.10; group mean, gene BMP6 (SpotID 50319, MAA and Josa vs. Clari): 1.15; group mean, gene DAD1 (SpotID 50332, MAA and Josa vs. Clari): 1.20; group mean, gene FGFR2 (SpotID 50337, MAA and Josa vs. Clari): 1.08; group mean, gene IKKE (SpotID 50342, MAA and Josa vs. Clari): 1.11; mean group, IKKE (SpotID 50342, pooled group mean): 1.08; group mean, gene LOC51295 (SpotID 50349, MAA and Josa vs. Clari): 0.78; mean group, LOC51295 (SpotID 50349, pooled group mean): 0.84; mean group, CFL1 (SpotID 50351, pooled group mean): 1.00; group mean, gene TFAM (SpotID 50386, MAA and Josa vs. Clari): 0.91; group mean, gene DGCR6L (SpotID 50399, MAA and Josa vs. Clari): 1.17; group mean, gene CHERP (SpotID 50405, MAA and Josa vs. Clari): 0.87; group mean, gene AGPAT1 (SpotID 50412, MAA and Josa vs. Clari): 1.12; mean group, GOCAP1 (SpotID 50421, pooled group mean): 1.10; group mean, gene SIGIRR (SpotID 50452, MAA and Josa vs. Clari): 1.10; group mean, gene MMP15 (SpotID 50464, MAA and Josa vs. Clari): 1.10; group mean, gene CEBPA (SpotID 50474, MAA and Josa vs. Clari): 1.29; mean group, MGP (SpotID 50511, pooled group mean): 0.98; group mean, gene ARHC (SpotID 50513, MAA and Josa vs. Clari): 1.02; mean group, ARHC (SpotID 50513, pooled group mean): 1.00; group mean, gene PRKCBP1 (SpotID 50532, MAA and Josa vs. Clari): 0.94; group mean, gene PTPRT (SpotID 50550, MAA and Josa vs. Clari): 1.08; mean group, BN51T (SpotID 50584, pooled group mean): 1.07; mean group, CKS2 (SpotID 50590, pooled group mean): 0.89; mean group, SpotID 50591 (SpotID 50591 (gene symbol not given), pooled group mean): 1.13; group mean, SpotID 50591 (gene symbol not given) (SpotID 50591, MAA and Josa vs. Clari): 1.17; mean group, SRP19 (SpotID 50601, pooled group mean): 1.06; group mean, gene PDIR (SpotID 50639, MAA and Josa vs. Clari): 1.10; group mean, gene PROS1 (SpotID 50643, MAA and Josa vs. Clari): 1.11; mean group, BET1 (SpotID 50645, pooled group mean): 1.01; group mean, gene COPB2 (SpotID 50654, MAA and Josa vs. Clari): 1.12; group mean, gene MAX (SpotID 50659, MAA and Josa vs. Clari): 1.10; group mean, gene GNB5 (SpotID 50689, MAA and Josa vs. Clari): 1.19; group mean, gene PRKDC (SpotID 50736, MAA and Josa vs. Clari): 0.90; mean group, PRKDC (SpotID 50736, pooled group mean): 0.92; group mean, gene AD022 (SpotID 50738, MAA and Josa vs. Clari): 1.14; mean group, AD022 (SpotID 50738, pooled group mean): 1.10
